Columns and labels:
[1] = system: Aspergillus brasiliensis (ATCC 16404) spores; assay: Liquid disinfection process in AER basin, indicator device not connected to the pump; spore viability in malt extract broth; assay type: cell-based; settings: 0.35% OPA (minimum effective concentration), 5 minute contact at 25 C, two rinses with purified water; approx. 1x10^6 spores on carrier; broth incubated 7 days at 30 C
Description: (§1) Aspergillus brasiliensis (ATCC 16404) was inoculated onto the surface of a potato dextrose agar culture and incubated 14 days at 25-30° C. After the incubation period, the surface of the plate was flooded with an aqueous solution of glycerol (10% v/v) and Tween 20 detergent (0.05% v/v). The viable fungal spore population was determined by standard plate counting method using PETRIFILM™ Rapid Yeast and Mold Count Plates (RYM) obtained from 3M Company (St. Paul, Minn.). The plates were incubated at 28-30° C. for 2-3 days. The resulting spore suspension was stored at −80 degrees C. until use.
(§2) The spore suspension was diluted in water to a concentration of approximately 10^8 spores/mL. Ten microliters (approximately 1×10^6 spores) of the diluted spore suspension was pipetted onto a circular disc (approximately 0.25 inch (6.4 mm) diameter) nonwoven carrier material (Sontara® grade 8005 nonwoven material obtained from Dupont (Candler, N.C.)). The spore-coated discs were allowed to dry for 24 hours at room temperature before assembling the indicator device.
(§3) Indicator devices were made by inserting aerosol-filter pipet tips (Part #16466-008; sterile aerosol 1000 uL pipet tips; VWR; Radnor, Pa.) into a piece of hollow tubing (Part #14-169-7C; PVC tubing, 0.25-inch (6.4 mm) inner diameter; Fisher Scientific; Waltham, Mass.), as shown in FIGS. 13-14. […]

[2] = system: Aspergillus brasiliensis (ATCC 16404) spores; assay: Flow-through disinfection, indicator device connected to the AER flow pump system; spore viability in malt extract broth; assay type: cell-based; settings: 0.35% OPA at 25 C pumped through device at approx. 25 ml/min, incubated up to 7 days, duplicate devices
Description: as §1, §2, §3

Measured: growth of spores in malt extract broth after contact with the liquid disinfectant

O=Cc1ccccc1C=O [OPA, ortho-phthalaldehyde]
No growth: [1] | [2]; 30 seconds contact | [2]; 5 minutes contact

Source: patent publication US20220047752A1, “BIOLOGICAL INDICATOR FOR DISINFECTION PROCESS CHALLENGE DEVICE” (3M INNOVATIVE PROPERTIES COMPANY, priority 2016, published 2022)
